# According to PubChem BioAssay (NCI):
#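 Dose response: 5 concentrations. Exposure: 48 h. Format: 96-well plates. Endpoint: linear interpolation; highest concentration if not reached. Abbreviation: GI50, concentration required for 50% inhibition of growth. TGI: concentration producing complete growth inhibition.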
# Legend:
# Experiment in all cases: NCI-60 cell line screen, 48 h
# HCC-2998 colon = test system: HCC-2998 colon
# OVCAR-3 ovarian = test system: OVCAR-3 ovarian
# OVCAR-4 ovarian = test system: OVCAR-4 ovarian
# OVCAR-8 ovarian = test system: OVCAR-8 ovarian
# SF-268 CNS = test system: SF-268 CNS
# SNB-75 CNS = test system: SNB-75 CNS
# U251 CNS = test system: U251 CNS
# UACC-257 melanoma = test system: UACC-257 melanoma
# UO-31 renal = test system: UO-31 renal
# CCRF-CEM leukemia = test system: CCRF-CEM leukemia
SMILES,TGI (HCC-2998 colon) [µM],TGI (OVCAR-3 ovarian) [µM],TGI (OVCAR-4 ovarian) [µM],TGI (OVCAR-8 ovarian) [µM],TGI (SF-268 CNS) [µM],TGI (SNB-75 CNS) [µM],TGI (U251 CNS) [µM],TGI (UACC-257 melanoma) [µM],TGI (UO-31 renal) [µM],GI50 (CCRF-CEM leukemia) [µM],TGI (CCRF-CEM leukemia) [µM],GI50 (HCC-2998 colon) [µM],GI50 (OVCAR-3 ovarian) [µM],GI50 (OVCAR-4 ovarian) [µM],GI50 (OVCAR-8 ovarian) [µM],GI50 (SF-268 CNS) [µM],GI50 (SNB-75 CNS) [µM],GI50 (U251 CNS) [µM],GI50 (UACC-257 melanoma) [µM],GI50 (UO-31 renal) [µM]
NCCSSCc1ccccc1CSSCCN,> 100,> 100,> 100,> 100,> 100,> 100,> 100,> 100,> 100,,,,,,,,,,,
COc1ccccc1Nc1cc(O)c2c(=O)cc(-c3ccccc3)oc2c1,> 100,5.2,47.8,> 100,48.2,8.5,> 100,63.5,21.5,3.57,> 100,6.07,2.05,4.49,4.65,4.71,2.39,3.63,6.72,3.57
COc1cc(/C=C/c2cc(/C=C/c3ccc(O)c(OC)c3)n(C(=O)c3ccc(Cl)cc3)n2)ccc1O,12.8,7.72,34.9,8.14,13.6,10.3,11.6,13.2,10.1,1.64,> 100,3.94,2.67,2.02,2.8,2.65,1.99,2.94,3.79,1.39
C=CCNC(=O)NCCCCC(NC(C)=O)C(=O)NCc1ccccc1 (stereo unspecified),> 100,> 100,> 100,> 100,> 100,> 100,> 100,> 100,> 100,,> 100,,,,,,,,,
CC(C)(C)C(=O)OCOP(=O)(NCc1ccccc1)C1CCCN(O)C1=O (stereo unspecified),12,9,71.9,> 100,> 100,39.1,> 100,55.4,2.99,0.558,> 100,2.37,1.04,2.1,1.17,2.09,4.97,2.45,5.11,0.349
O=C(CSc1nc2c(n1Nc1ccccc1)-c1ccccc1SC2)Nc1nc(-c2ccc(Cl)cc2)cs1,> 100,> 100,,> 100,> 100,23.8,88.2,> 100,> 100,,,> 100,7.34,,6.42,10.8,9.23,9.91,> 100,> 100
Cc1c(C)c2ccc3oc4ccccc4c3c2oc1=O,> 100,> 100,> 100,> 100,> 100,> 100,> 100,> 100,> 100,,> 100,,,,,,,,,
O=C(NCCCCN1CCOCC1)c1cc2ccccc2o1,> 100,> 100,> 100,> 100,> 100,> 100,> 100,> 100,> 100,,,> 100,> 100,> 100,> 100,> 100,> 100,> 100,> 100,> 100
Cc1cnc2n1S(=O)(=O)c1cc(C(=O)Nc3cccc4nsnc34)c(Cl)cc1S2,,30.2,75.4,> 100,55.6,62.3,> 100,38.3,51.8,,,,16.2,27.8,33.6,22.5,25.6,31.6,19.1,22.9
CN(CCS(=O)(=O)N1C(=O)C2CCCN2C(=O)[C@@H]1Cc1ccccc1)C(=O)OCc1ccccc1 (stereo partly specified),> 100,> 100,> 100,> 100,> 100,> 100,> 100,> 100,> 100,,> 100,,,,,,,,,
O=C(O)CSc1n[nH]c(=O)[nH]c1=O,,> 100,> 100,> 100,> 100,> 100,> 100,,> 100,,> 100,,,,,,,,,
CCc1ccc(Oc2c(-c3ccc(OCc4ccc(Cl)cc4)cc3O)n[nH]c2C(F)(F)F)cc1,4,3.28,3.31,5.87,3.39,5.8,3.22,3.8,3.89,2.92,7.22,1.93,1.78,1.62,2.52,1.74,1.48,1.79,1.84,1.68
C=CSCCC(N)C(=O)O (stereo unspecified),> 100,> 100,> 100,> 100,> 100,> 100,> 100,> 100,> 100,,> 100,,,,,,,,,
C=C(c1ccc(OC)c(/C=C/C(=O)c2ccc3c(c2)OCO3)c1)c1cc(OC)c(OC)c(OC)c1,,8.21,> 100,18.2,> 100,7.08,9.88,> 100,> 100,0.916,> 100,,2.98,3.93,2.89,3.18,1.64,2.54,6.69,3.1
COc1cccc2c1c1ccc3c(c1n2C)C(=O)C=CC3=O,> 100,30.5,31.8,29.7,33.6,,> 100,30.3,44.2,,> 100,,,,,,,,,
Cc1nc2sccn2c1C(=O)NN,> 100,> 100,,> 100,> 100,,> 100,> 100,,,> 100,,,,,,,,,
